Data taken from patent publication US20180264074A1, “USE OF POLYMYXIN AS AN ANTIDOTE FOR INTOXICATIONS BY AMATOXINS” (UNIVERSIDADE DO PORTO, priority 2015, published 2018).

What was measured:
adult male mice (CD-1) [1] = format: in vivo
Description: (§1) For this purpose, adult male mice (CD-1) were used. Two experiments were performed to test polymyxin B effectiveness: polymyxin B was administered concomitantly with α-amanitin and four hours after administration of α-amanitin. Concomitant therapy consisted of 0.33 mg/kg of α-amanitin followed by 2.5 mg/kg of polymyxin B (one administration). In the second experiment, three 2.5 mg/kg administrations of polymyxin B were used in different time-points [4, 8 and 12 h, intraperitoneal (i.p.) administration] after one α-amanitin (dose 0.33 mg/kg i.p.) exposure, as to mimic the clinical scenario of late intoxication diagnosis; human intoxication is often only found hours later when symptoms become clinically relevant. […] Moreover 50% of animal exposed to polymyxin B 4, 8 and 12 h after α-amanitin survived […]. In order to validate and unveil some mechanisms involved, an acute study with the same doses and scheme was performed, with animals being sacrificed 24 h after α-amanitin administration.
FIG. 1. Survival curves after concomitant i.p. administration of 0.33 mg/kg of α-amanitin and polymyxin B (Ama+Pol— 2.5 mg/kg) and 3 administrations of polymyxin B (Ama+Pol— 3×2.5 mg/kg) at different time-points (4, 8 and 12 h, i.p. administration) after one α-amanitin (dose 0.33 mg/kg i.p.). Results are expressed in percent survival. Control tests were performed (Control), consisting of a saline-control treatment. A polymyxin treatment (Pol) was additionally performed. A treatment with α-amanitin (Ama) as also made.
For this purpose, adult male mice (CD-1) were used. Two experiments were performed to test polymyxin B effectiveness: polymyxin B was administered concomitantly with α-amanitin and four hours after administration of α-amanitin. Concomitant therapy consisted of 0.33 mg/kg of α-amanitin followed by 2.5 mg/kg of polymyxin B (one administration). In the second experiment, three 2.5 mg/kg administrations of polymyxin B were used in different time-points (4, 8 and 12 h, i.p. administration) after one α-amanitin exposure (0.33 mg/kg i.p dose), as to mimic the clinical scenario of late intoxication diagnosis; human intoxication is often only found hours later when symptoms become clinically relevant. […] Moreover, 50% of animals exposed to polymyxin B 4, 8 and 12 h after α-amanitin survived (FIG. 1). In order to validate and unveil some mechanisms involved, an acute study with the same doses and scheme was performed with polymyxin B 4, 8 and 12 h after α-amanitin administration. Animals were sacrificed 24 h after α-amanitin administration. […] The renal corpuscles appearance is heterogeneous, with a wide capsular space, and thickened external Bowman capsule. […]

adult male mice (CD-1) [2] = assay: Acute study, animals sacrificed 24 h after α-amanitin: plasma aminotransferases, liver and kidney histology; format: in vivo
Description: as §1
FIG. 2. Plasma levels of Aspartate aminotransferase (AST) and alanine aminotransferase (ALT) in control, polymyxin B (3×2.5 mg/kg) (Pol), α-amanitin (Ama) and α-amanitin+polymyxin B (3×2.5 mg/kg) (Ama+Pol) groups. Results are presented as means±standard deviation (SD), and were obtained from 4-5 animals from each treatment. Statistical comparisons were made using Kruskal-Wallis ANOVA on Ranks followed by the Dunn's post hoc test (*p<0.05, Ama vs. control; #p<0.05, Ama vs. Ama+Pol).
FIG. 3. Liver histopathology by light microscopy. (A) Light micrograph (40×) from α-amanitin treated-group. The presence of cellular oedema (1), cytoplasmic vacuolization (2), interstitial inflammatory cell infiltration (3), as well as some necrotic zones can be seen (4). (B) Light micrograph (40×) from α-amanitin+polymixin B (3×2.5 mg/kg) group. […] Increase number interstitial inflammatory cell was still observed.
FIG. 4. Kidney histopathology by light microscopy (A) Light micrograph (10×) from α-amanitin-treated group. The presence of cytoplasmatic vacuolization (5), renal corpuscles with a wide capsular space, and thickened external Bowman capsule (6), as well as some necrotic zones can be seen (7). The presence large amounts of fibrin-related material cause enlargement and obstruction of distal tubules (8). (B) Light micrograph (10×) from α-amanitin+polymixin B (3×2.5 mg/kg) group.
For this purpose, adult male mice (CD-1) were used. Two experiments were performed to test polymyxin B effectiveness: polymyxin B was administered concomitantly with α-amanitin and four hours after administration of α-amanitin. Concomitant therapy consisted of 0.33 mg/kg of α-amanitin followed by 2.5 mg/kg of polymyxin B (one administration). In the second experiment, three 2.5 mg/kg administrations of polymyxin B were used in different time-points (4, 8 and 12 h, i.p. administration) after one α-amanitin exposure (0.33 mg/kg i.p dose), as to mimic the clinical scenario of late intoxication diagnosis; human intoxication is often only found hours later when symptoms become clinically relevant. […] Moreover, 50% of animals exposed to polymyxin B 4, 8 and 12 h after α-amanitin survived (FIG. 1). In order to validate and unveil some mechanisms involved, an acute study with the same doses and scheme was performed with polymyxin B 4, 8 and 12 h after α-amanitin administration. Animals were sacrificed 24 h after α-amanitin administration. […] The renal corpuscles appearance is heterogeneous, with a wide capsular space, and thickened external Bowman capsule. […] Marked atrophy and degeneration of distal tubules cells was also observed, and large amounts of fibrin-related material caused enlargement and obstruction of these tubules.

[3] = 24 h after α-amanitin 0.33 mg/kg i.p., polymyxin B 3×2.5 mg/kg at 4, 8 and 12 h
[4] = 24 h after α-amanitin 0.33 mg/kg i.p., polymyxin B 3×2.5 mg/kg at 4, 8 and 12 h, listed as polymixin B

| Molecule | day until which all animals died (adult male mice (CD-1) [1]; single dose of α-amanitin 0.33 mg/kg i.p., no antidote) [days] | kidney histology (light microscopy) (adult male mice (CD-1) [2]; [3]) | liver histology (light microscopy) (adult male mice (CD-1) [2]; [3]) | plasma aminotransferases (AST, ALT) (adult male mice (CD-1) [2]; [3]) | kidney histology (light microscopy) (adult male mice (CD-1) [2]; [4]) | liver histology (light microscopy) (adult male mice (CD-1) [2]; [4]) | hepatic and renal damage (histological and plasma data) (adult male mice (CD-1) [2]; 24 h after α-amanitin administration, same doses and scheme) | signs of injury or discomfort (adult male mice (CD-1) [1]; concomitant polymyxin B 2.5 mg/kg with α-amanitin 0.33 mg/kg, up to day 30) | animals that survived (adult male mice (CD-1) [1]; polymyxin B 3×2.5 mg/kg i.p. at 4, 8 and 12 h after α-amanitin 0.33 mg/kg i.p.) [%] | animals that survived until the 30th day (adult male mice (CD-1) [1]; α-amanitin 0.33 mg/kg i.p. followed by polymyxin B 2.5 mg/kg, one concomitant administration) [%] |
| --- | --- | --- | --- | --- | --- | --- | --- | --- | --- | --- |
| CC[C@H](C)[C@@H]1NC(=O)CNC(=O)[C@@H]2Cc3c([nH]c4cc(O)ccc34)[S@+]([O-])C[C@H](NC(=O)CNC1=O)C(=O)N[C@@H](CC(N)=O)C(=O)N1C[C@H](O)C[C@H]1C(=O)N[C@@H]([C@@H](C)[C@@H](O)CO)C(=O)N2 [α-amanitin] | ≤ 5 | – | – | – | – | – | – | – | – | – |
| polymyxin B | – | protected against the occurrence of the above referred alterations, particularly the necrosis and the obstruction of distal tubules | significant reversion against α-amanitin-induced necrotic changes as well as the induced oedema and cytoplasmic vacuolization | totally reverted | oedema, cytoplasmatic vacuolization and necrosis, were significantly attenuated | oedema, cytoplasmatic vacuolization and necrosis, were significantly attenuated | protected against hepatic and renal damage caused by α-amanitin | without major signs of injury or discomfort | 50 | 100 |
